pIC50: −log10 of the molar value. Where two headings read alike, the source gives them in different places.
Tests used:
[1] = test system: K562 human myelogeneous leukaemia cell line; assay: Cytotoxicity/growth inhibition assay (MTT), K562; type: cell-based
From the text: (§1) In addition to the cell lines described in this paper, other established human cell lines (K562, HUVEC, H460, BE, H529, and HT29) were used in the cytotoxicity/growth inhibition assay. • (1) Inhibition of tubulin assembly. The figure quoted is the concentration required to reduce assembly of tubulin by 50%. Tubulin assembly is monitored by light scatter/absorption at 350 nm.
(§2) (2) Competition for the colchicine binding site on tubulin. The figure quoted represents the % of ^3H-colchicine bound following co-incubation of test compound and ^3H-cochicine with isolated tubulin. Where ester pro-drugs were used the experiments were carried out in the presence and absence of porcine liver esterase. • (3) Cytotoxicity/growth inhibition assay. This was carried out by the MTT assay. • (4) Permeability (shape-change) assay in endothelial cells. […] This involved the diffusion of a fluorescently labelled dextran through a barrier of endothelial cells (HUVEC) grown to confluence on a porous membrane. The effect of agents to alter the shape of these cells results in an increase in the permeability of the cells to the dye. The figure represents the increase in permeability over control cultures when drug is added (30 minutes, 1 mM.). • (5) Experiments to study the anti-vascular effects of these agents were carried out as described previously by our group. […] The anti-vascular effects of the agents were monitored by either positron emission tomography (PET) or by histologogical examination following treatment of mice bearing T50:80 murine breast tumours, or H460 human lung tumours. • (6) Anti-tumour efficacy of agents was determined in xenografts of H460 human lung cancer. Animals (n=5) were trated either with 5 daily injections and tumour size measured with time following treatment. • (7) The pharmacokinetic profile of agents was determined in mice following injection with drug. Blood was taken at various times following treatment and analysed by HPLC with UV detection. […] (AND(P)H:quinone oxidoreductace, EC 1.6.99.2). DT-diaphorase is an enzyme over-expressed in a number of human tumours. […] This two-electron reducing enzyme can be used to selectively activate prodrugs within cancers which over-express the enzyme.

[2] = test system: tubulin; assay: MA IC50 (Tables 12-26, abbreviation not defined); type: biochemical
[3] = test system: K562; assay: K562 cell cycle analysis; type: cell-based, human; conditions: K562
[4] = test system: tubulin; assay: CD IC50 (Tables 12-26, abbreviation not defined); type: binding
[5] = test system: HUVEC; assay: Growth inhibition studies using HUVEC; type: cell-based, human; conditions: Homo sapiens, HUVEC
Protocol: as §1, with “The following assays (1–5) were carried out as described in our paper (Woods, et al, British Journal of Cancer, 71, 705–711 (1995)). In addition” for “In addition”
(§3) (2) Competition for the colchicine binding site on tubulin. The figure quoted represents the % of ^3H-colchicine bound following co-incubation of test compound and ^3H-cochicine with isolated tubulin. Where ester pro-drugs were used the experiments were carried out in the presence and absence of porcine liver esterase. • (3) Cytotoxicity/growth inhibition assay. This was carried out by the MTT assay. • (4) Permeability (shape-change) assay in endothelial cells. This was carried out using a method based on that of Watts et al. (Anticancer Res., 17, 71–75, (1997)). This involved the diffusion of a fluorescently labelled dextran through a barrier of endothelial cells (HUVEC) grown to confluence on a porous membrane. The effect of agents to alter the shape of these cells results in an increase in the permeability of the cells to the dye. The figure represents the increase in permeability over control cultures when drug is added (30 minutes, 1 mM.). • (5) Experiments to study the anti-vascular effects of these agents were carried out as described previously by our group. (Zhao et al, European Journal of Nuclear Medicine, 26, 231–238 (1999)). The anti-vascular effects of the agents were monitored by either positron emission tomography (PET) or by histologogical examination following treatment of mice bearing T50:80 murine breast tumours, or H460 human lung tumours. • (6) Anti-tumour efficacy of agents was determined in xenografts of H460 human lung cancer. Animals (n=5) were trated either with 5 daily injections and tumour size measured with time following treatment. • (7) The pharmacokinetic profile of agents was determined in mice following injection with drug. Blood was taken at various times following treatment and analysed by HPLC with UV detection. The HPLC conditions were isocratic using a 5 micron C18 BDS column (150×4.6) ad eluting with 75% MeOH in water with a detection wavelength of 290 nm. […] (AND(P)H:quinone oxidoreductace, EC 1.6.99.2). DT-diaphorase is an enzyme over-expressed in a number of human tumours. […] This two-electron reducing enzyme can be used to selectively activate prodrugs within cancers which over-express the enzyme.

[6] = test system: T1, tubulin; assay: Inhibition of tubulin assembly; type: biochemical; conditions: concentration required to reduce assembly of tubulin by 50%
T1 construct: other: concentration required to reduce assembly of tubulin by 50%
Protocol: as §1, with “The following assays (1–5) were carried out as described in our paper (Woods, et al, British Journal of Cancer, 71, 705–711 (1995)). In addition” for “In addition”

[7] = test system: A2780; assay: Cytotoxicity/growth inhibition assay (MTT), A2780; type: cell-based; conditions: read-out: A2780 IC50
Protocol: as §1, with “The following assays (1–5) were carried out as described in our paper (Woods, et al, British Journal of Cancer, 71, 705–711 (1995)). In addition” for “In addition”
as §3

[8] = test system: P388 murine leukaemia cell line; assay: Cytotoxicity/growth inhibition assay (MTT), P388; type: cell-based; conditions: MTT
Protocol: as §2

[9] = test system: K562 cells; assay: In situ ultra violet irradiation of dosed K562 cells, IC50; type: cell-based, human; conditions: read-out: IC50 K562 (nm)
Protocol: Previously, the isomerisation study had been performed ex situ, i.e. in a photochemical reactor. However, it was necessary to illustrate the potential of the process as a real therapy by repeating the isomerization in the presence of the caner cells i.e. in situ. […] Following irradiation, the cells were incubated in the normal way and the IC50 values were determined.
These consisted of i) exposing K562 cells only (i.e. cells which were not dosed with any potential drug candidate) to ultra violet light, ii) preventing K562 cells dosed with drug candidate from being exposed to ultra violet light, and iii) preventing K562 cells only (i.e. cells which were not dosed with any potential drug candidate) from being exposed to ultra violet light. […]

[10] = test system: K562; assay: IC50 of aliquots after ex situ irradiation in a photochemical reactor; conditions: for pIC50: read-out: IC50 K562, ex situ irradiation in benzene, 400W Hg lamp
[11] = Photocleavage and isomerisation of coupled trans-CA-4 ex situ, composition (HPLC); type: physicochemical; conditions: benzene
From the text: The following compound retention times were observed:

[12] = of cells with DNA content = 2 n or >2 n
[13] = Homo sapiens, K562, MTT, read-out: K562 IC50
[14] = irradiation 20. mins [sic] (Table 8)
[15] = irradiation 10.0 mins (Table 8)
[16] = irradiation 12.5 mins (Table 8)

COc1ccc(C=C(C)c2cc(OC)c(OC)c(OC)c2)cc1 [Compound 213]
pIC50 ([1]; Homo sapiens, K562, Table 22, read-out: MTT (K582) IC50): 7.00 | pIC50 [2]: 5.89 | % of cells with DNA content <2 n [3]: 23% | % of cells in G0–G1 [3, 12]: 5% | % of cells in G2-M [3, 12]: 73% | % of cells in S phase [3, 12]: 21% | pIC50 [4]: < 4.60 | pIC50 [5]: 6.46

CCOc1cc(/C=C\c2ccc(OC)c(O)c2)cc(OCC)c1OCC [Compound 31a, Z-1-(3′,4′,5′-triethoxyphenyl)-2-(3″-hydroxy-4″-methoxyphenyl)ethene]
pIC50 [1, 13]: 7.74 | IC50 [6]: 7.5 µM

COc1ccc(/C=C\c2cc(OC)c(OC)c(OC)c2)cc1Br [Compound 93]
pIC50 [1, 13]: 9.00 | pIC50 [2]: 6.40 | pIC50 [4]: 5.00 | pIC50 [5]: 7.17

COc1ccc(/C=C\c2cc(OC)c(OC)c(OC)c2)cc1 [Compound 32]
pIC50 [1, 13]: 8.40 | pIC50 [2]: 6.70 | pIC50 [4]: 5.26 | pIC50 [5]: 8.22

CC/C(=C/c1cc(OC)c(OC)c(OC)c1)c1ccc(OC)c(O)c1 [Compound 45]
pIC50 [1, 13]: 6.92 | IC50 [6]: 1.8 µM

CCOc1cc(/C=C\c2ccc(OC)c(F)c2)cc(OCC)c1OCC [Compound 32a, Z-1-(3′,4′,5′-triethoxyphenyl)-2-(3″-fluoro-4″-methoxyphenyl)ethene]
pIC50 [1, 13]: 7.36 | IC50 [6]: 18 µM

COc1ccc(/C=C\c2cc(OC)c(OC)c(OC)c2)cc1OC [Compound 99-03H]
pIC50 ([1]; MTT, read-out: K562 IC50): 7.22 | pIC50 [7]: 6.92 | IC50 [6]: 60 µM | pIC50 [8]: 6.72

COC(=O)CCCOc1cc([N+](=O)[O-])c(COc2cc(/C=C/c3cc(OC)c(OC)c(OC)c3)ccc2OC)cc1OC [Compound E-8, Methyl 4-[2′-methoxy-4′-({2″-methoxy-5″-[(E)-2′″-3′″,4′″,5′″-trimethoxyphenylethenyl]phenoxy}-methyl)-5′-nitrophenoxy]butanoate]
pIC50 ([9]; in situ UV 0 mins (Table 9)): < 4.00 | pIC50 ([9]; in situ UV 0.5 mins (Table 9)): 5.81 | pIC50 ([9]; in situ UV 1 mins (Table 9)): 6.35 | pIC50 ([9]; in situ UV 1.5 mins (Table 9)): 6.60 | pIC50 ([9]; in situ UV 2 mins (Table 9)): 6.89 | pIC50 ([9]; in situ UV 3 mins (Table 9)): 7.40 | pIC50 ([9]; in situ UV 4 mins (Table 9)): 7.96 | pIC50 ([9]; in situ UV 5 mins (Table 9)): 8.05 | pIC50 ([9]; in situ UV 7.5 mins (Table 9)): 8.30 | pIC50 ([9]; in situ UV 10 mins (Table 9)): 8.70 | pIC50 ([9]; in situ UV 12.5 mins (Table 9)): 8.52 | pIC50 ([9]; in situ UV 15 mins (Table 9)): 8.52 | pIC50 ([9]; in situ UV 17.5 mins (Table 9)): 8.70 | pIC50 ([9]; in situ UV 20 mins (Table 9)): 8.70 | times less cytotoxic than trans-CA-4 ([10]; K562): 5 | pIC50 ([10]; 0 mins (Table 8)): < 3.82 | pIC50 ([10]; 20. mins as printed (Table 8)): 7.23 | pIC50 ([10]; 0.5 mins (Table 8)): 4.84 | pIC50 ([10]; 1.0 mins (Table 8)): 6.35 | pIC50 ([10]; 1.5 mins (Table 8)): 7.05 | pIC50 ([10]; 3.0 mins (Table 8)): 7.85 | pIC50 ([10]; 4.0 mins (Table 8)): 7.92 | pIC50 ([10]; 5.0 mins (Table 8)): 8.10 | pIC50 ([10]; 7.5 mins (Table 8)): 8.40 | pIC50 ([10]; 10.0 mins (Table 8)): 8.22 | pIC50 ([10]; 12.5 mins (Table 8)): 8.70 | pIC50 ([10]; 15.0 mins (Table 8)): 8.70 | pIC50 ([10]; 17.5 mins (Table 8)): 8.40 | pIC50 ([10]; 20.0 mins (Table 8)): 8.52 | % coupled trans-CA-4 (E-8) ([11]; irradiation 0 mins (Table 8)): 100% | % cis-CA-4 [11, 14]: 9% | % coupled trans-CA-4 (E-8) [11, 14]: 72% | % trans-CA-4 [11, 14]: 19% | % coupled trans-CA-4 (E-8) ([11]; irradiation 0.5 mins (Table 8)): 93% | % trans-CA-4 ([11]; irradiation 0.5 mins (Table 8)): 7% | % cis-CA-4 ([11]; irradiation 1.0 mins (Table 8)): 4% | % coupled trans-CA-4 (E-8) ([11]; irradiation 1.0 mins (Table 8)): 88% | % trans-CA-4 ([11]; irradiation 1.0 mins (Table 8)): 8% | % cis-CA-4 ([11]; irradiation 1.5 mins (Table 8)): 8% | % coupled trans-CA-4 (E-8) ([11]; irradiation 1.5 mins (Table 8)): 80% | % trans-CA-4 ([11]; irradiation 1.5 mins (Table 8)): 12% | % cis-CA-4 ([11]; irradiation 3.0 mins (Table 8)): 11% | % coupled trans-CA-4 (E-8) ([11]; irradiation 3.0 mins (Table 8)): 62% | % trans-CA-4 ([11]; irradiation 3.0 mins (Table 8)): 27% | % cis-CA-4 ([11]; irradiation 4.0 mins (Table 8)): 8% | % coupled trans-CA-4 (E-8) ([11]; irradiation 4.0 mins (Table 8)): 61% | % trans-CA-4 ([11]; irradiation 4.0 mins (Table 8)): 31% | % cis-CA-4 ([11]; irradiation 5.0 mins (Table 8)): 10% | % coupled trans-CA-4 (E-8) ([11]; irradiation 5.0 mins (Table 8)): 53% | % trans-CA-4 ([11]; irradiation 5.0 mins (Table 8)): 37% | % cis-CA-4 ([11]; irradiation 7.5 mins (Table 8)): 13% | % coupled trans-CA-4 (E-8) ([11]; irradiation 7.5 mins (Table 8)): 42% | % trans-CA-4 ([11]; irradiation 7.5 mins (Table 8)): 45% | % cis-CA-4 [11, 15]: 19% | % coupled trans-CA-4 (E-8) [11, 15]: 34% | % trans-CA-4 [11, 15]: 47% | % cis-CA-4 [11, 16]: 45% | % coupled trans-CA-4 (E-8) [11, 16]: 20% | % trans-CA-4 [11, 16]: 35%

From patent US7220784B2, “Substituted stilbenes and their reactions” (priority 2000, dated 2007)
